Measured values reported in patent publication US11952363B2, “Piperazine compounds for the treatment of autoimmune disease” (Hoffmann-La Roche Inc., priority 2018, dated 2024).

How the values were obtained:
CYP2D6 = molecular target: T1, CYP2D6 (Homo sapiens, UniProt P10635); experiment: CYP inhibition assay in human liver microsome; format: in vitro ADME; conditions: liver microsomes, probe dextromethorphan, 10 μM compound, dextromethorphan substrate, percentage inhibition < 0: not or weak inhibitor, read-out: CYP 2D6 inhibition % @10 μM
T1 construct: tissue BD-Gentest 452117; host or cells: human liver microsomes
T1 sequence (P10635 whole entry): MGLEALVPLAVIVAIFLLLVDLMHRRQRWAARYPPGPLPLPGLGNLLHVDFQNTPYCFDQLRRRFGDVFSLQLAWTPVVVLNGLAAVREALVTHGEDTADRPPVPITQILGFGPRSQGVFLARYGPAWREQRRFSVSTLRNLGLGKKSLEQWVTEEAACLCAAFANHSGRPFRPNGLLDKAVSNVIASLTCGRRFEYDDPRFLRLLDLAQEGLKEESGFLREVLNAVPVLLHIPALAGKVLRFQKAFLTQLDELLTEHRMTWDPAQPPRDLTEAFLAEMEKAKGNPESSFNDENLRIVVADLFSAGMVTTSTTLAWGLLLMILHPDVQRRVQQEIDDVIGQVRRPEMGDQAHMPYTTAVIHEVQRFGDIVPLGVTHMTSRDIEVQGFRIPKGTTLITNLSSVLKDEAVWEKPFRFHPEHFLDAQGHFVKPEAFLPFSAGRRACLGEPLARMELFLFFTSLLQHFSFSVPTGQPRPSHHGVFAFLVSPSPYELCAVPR
Procedure: This is a high throughput screening assay used for assessment of reversible inhibition of CYP2D6 activity of test compounds in human liver microsome (HLM) in early discovery stage.
10 mM DMSO stock solutions of test compounds were diluted in DMSO to generate 2 mM intermediate stock solution. 250 nL of intermediate stock solution were transferred in duplicate into 3 separate 384 well microtitre plates (assay-ready plates). A mixture of HLM and each substrate was made up. 45 μL of HLM substrate mix was then transferred to each well of an assay ready plate and mixed. The negative (solvent) and positive control (standard inhibitor for CYP 2D6) were included in each assay ready plate. The assay ready plate was warmed to 37° C. in an incubator over 10 minutes. 5μL pre-warmed NADPH regenerating system was added to each incubation well to start the reaction. Final incubation volume was 50 μL. The assay plate then was placed back in the 37° C. incubator. After 10 minutes incubation, incubates were quenched by addition of 50 μL 100% acetonitrile containing internal standards (20 ng/mL D3-Dextrorphan). The supernatants were collected for RapidFire/MS/MS analysis.
RapidFire online solid phase extraction/sample injection system (Agilent) coupled with API4000 triple quadrupole mass spectrometer (AB Sciex) were used for sample analysis. The mobile phase composed of acetonitrile and water supplemented with 0.1% formic acid. A C4 solid phase extraction cartridge is used for sample separation. MS detection is achieved in positive ion MRM mode.
Peak areas for substrate, metabolite and internal standard are determined using the RapidFire integrator software (version 3.6.12009.12296). Peak area ratios (PAR) of metabolite and internal standard (stable-labelled metabolite) are then calculated. The measurement window for each experiment is then defined:
PAR (0% activity)=average PAR for all incubations containing concentrated inhibitor;
Par (100% activity)=average PAR for all incubations containing no inhibitor (DMSO controls);
% Activity (test inhibitor)
=[PAR(test inhibitor)-PAR(0% activity)]/[PAR(100% activity)-PAR(0% activity)];
% Inhibition (test inhibitor)=100-% Activity (test inhibitor).

human TLR9 = molecular target: T2, human TLR9 (Homo sapiens, UniProt Q9NR96); experiment: HEK293-Blue-hTLR-9 cells assay (SEAP reporter, ODN2006 stimulation); format: cell-based; conditions: HEK293-Blue-hTLR9 cells, ODN2006 ligand, 20 hrs incubation; read-out: HEK/hTLR9 IC50
T2 sequence (Q9NR96 26-1032): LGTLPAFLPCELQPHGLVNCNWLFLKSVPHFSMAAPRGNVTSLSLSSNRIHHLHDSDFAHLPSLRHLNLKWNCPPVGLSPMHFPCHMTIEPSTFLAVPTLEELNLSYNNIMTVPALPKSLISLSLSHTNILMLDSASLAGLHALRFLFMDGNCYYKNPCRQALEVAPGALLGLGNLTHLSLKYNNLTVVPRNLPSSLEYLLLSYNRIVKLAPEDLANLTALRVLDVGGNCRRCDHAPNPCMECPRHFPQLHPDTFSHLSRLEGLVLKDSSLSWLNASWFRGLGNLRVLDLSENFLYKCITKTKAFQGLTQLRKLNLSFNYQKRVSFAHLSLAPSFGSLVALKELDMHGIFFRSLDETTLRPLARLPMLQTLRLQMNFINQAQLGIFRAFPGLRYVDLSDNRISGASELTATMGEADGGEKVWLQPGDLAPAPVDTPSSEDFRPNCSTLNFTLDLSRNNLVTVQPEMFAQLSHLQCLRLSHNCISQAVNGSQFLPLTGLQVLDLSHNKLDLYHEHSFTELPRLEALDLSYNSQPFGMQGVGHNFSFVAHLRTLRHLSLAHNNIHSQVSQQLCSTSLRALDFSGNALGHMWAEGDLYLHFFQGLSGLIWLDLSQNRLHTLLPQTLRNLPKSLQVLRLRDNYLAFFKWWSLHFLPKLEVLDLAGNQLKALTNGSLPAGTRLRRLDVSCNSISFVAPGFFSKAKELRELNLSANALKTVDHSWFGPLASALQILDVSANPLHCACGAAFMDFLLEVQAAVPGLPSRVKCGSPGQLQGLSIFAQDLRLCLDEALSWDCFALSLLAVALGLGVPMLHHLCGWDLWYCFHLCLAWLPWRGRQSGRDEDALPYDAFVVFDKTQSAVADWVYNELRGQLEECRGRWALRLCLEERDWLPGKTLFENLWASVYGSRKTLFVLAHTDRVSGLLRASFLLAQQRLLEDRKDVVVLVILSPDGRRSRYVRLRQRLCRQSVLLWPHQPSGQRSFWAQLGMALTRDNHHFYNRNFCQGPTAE
Procedure: The following tests were carried out in order to determine the activity of the compounds of formula (I) in HEK293-Blue-hTLR-7/8/9 cells assay.
A stable HEK293-Blue-hTLR-9 cell line was purchased from InvivoGen (Cat.#: hkb-htlr9, San Diego, California, USA). These cells were originally designed for studying the stimulation of human TLR9 by monitoring the activation of NF-κB. A SEAP (secreted embryonic alkaline phosphatase) reporter gene was placed under the control of the IFN-β minimal promoter fused to five NF-κB and. AP-1-binding sites. The SEAP was induced by activating NF-κB and AP-1 via stimulating HEK-Blue hTLR9 cells with TLR9 ligands. Therefore the reporter expression was declined by TLR9 antagonist under the stimulation of a ligand, such as ODN2006 (Cat.#: tlr1-2006-1, Invivogen, San Diego, California, USA), for incubation of 20 his. The cell culture supernatant SEAP reporter activity was determined using QUANTI-Blue™ kit (Cat.#: rep-qb1, Invivogen, San Diego, California, USA) at a wavelength of 640 nm, a detection medium that turns purple or blue in the presence of alkaline phosphatase.
HEK293-Blue-hTLR9 cells were incubated at a density of 250,000-450,000 cells/mL in a volume of 170 μL in a 96-well plate in Dulbecco's Modified Eagle's medium (DMEM) containing 4.5 g/L glucose, 50 U/mL penicillin, […], […], 2 mM L-glutamine, 10% (v/v) heat-inactivated fetal bovine serum with addition of 20 μL test compound in a serial dilution in the presence of final DMSO at 1% and 10 p L of 20uM ODN2006 in above DMEM, perform incubation under 37° C. in a CO2 incubator for 20 hrs. Then 20 μL of the supernatant from each well was incubated with 180 μL Quanti-blue substrate solution at 37° C. for 2 h and the absorbance was read at 620˜655 nm using a spectrophotometer. The signaling pathway that TLR9 activation leads to downstream NF-κB activation has been widely accepted, and therefore similar reporter assay was modified for evaluating TLR9 antagonist.

Row | inhibition at 10 min, 10 µM (CYP2D6) [%] | IC50 (human TLR9) [nM] | SMILES
1 | 2 | 75 | C[C@@H]1CN(c2ccc(C#N)c3ncccc23)C[C@H](C)N1CC(=O)N1Cc2ccc(N3CCNCC3)cc2C1 [Example 16, 5-[(3R,5S)-3,5-Dimethyl-4-[2-oxo-2-(5-piperazin-1-ylisoindolin-2-yl)ethyl]piperazin-1-yl]quinoline-8-carbonitrile]
2 | 23 | 96 | C[C@@H]1CN(c2ccc(C#N)c3ncccc23)C[C@H](C)N1Cc1ccc(N2CCN(C(=O)CN(C)C)CC2)cn1 [Example 11, 5-[(3S,5R)-4-[[5-[4-[2-(Dimethylamino)acetyl]piperazin-1-yl]-2-pyridyl]methyl]-3,5-dimethyl-piperazin-1-yl]quinoline-8-carbonitrile]
